Assay results taken from a melting point compilation (Tetko et al.; mined from patent text by program, amines drawn as free bases though some values may be those of a salt).

`CCn1ncc2c(NCc3ccc(OCCN4CCOCC4)cc3)c3ccccc3nc21` gave a melting point of 170 to 172 °C.
`CC1(C)C(C(=O)O)C1C(Br)C(Br)(Br)Br` (stereo not given) showed a melting point of 150 °C.
For `CC1N=C(c2ccccc2Cl)c2cc([N+](=O)[O-])ccc2N(C)C1=O` (single isomer, unassigned; (+)), the melting point was 156 to 158 °C.
With `CC1(C)Oc2ccc(C#N)cc2C(Oc2ccc(O)nn2)C1(C)O` (stereo not given) the melting point was 131 to 134 °C.
For `COCc1ccc2ccc(C=O)nc2c1Cl`, the melting point was 118 to 121 °C.
With `Cc1c(NC(=O)c2ccc(OC[C@@H]3CCCO3)cc2F)ccc2cc(CNCC(C)C)cnc12` the melting point was 133 to 134 °C.
For `CC(C)[C@@H](CO)C[C@H](O)[C@H](CC1CCCCC1)NC(=O)OCc1ccccc1`, the melting point was 113 to 114 °C.
`ClCc1cn2cccc(OCc3ccccc3)c2n1` gave a melting point of 163 °C.
Work on `CC(=O)Oc1cccc(-c2c3ccccc3c(Br)c3sc4ccccc4c23)c1` yielded a melting point of 74 to 76 °C.
Compound `COc1cc(C(=O)N2Cc3ccc(C(=O)NCc4ccc5c(c4)OCCO5)n3Cc3ccccc32)ccc1-c1ccccc1C` has a melting point of 153 to 155 °C.
Compound `O=C(O)c1cc(-c2ccc3c(c2)CCO3)nn(CCCc2ccccc2Cl)c1=O` has a melting point of 137 to 140 °C.
Work on `Cc1ccc(S(=O)(=O)OCC2CCC=CO2)cc1` (stereo not given) yielded a melting point of 45 to 46 °C.
For `CSc1nc(Cl)c(-c2c(F)cc(F)cc2F)c(Cl)n1`, the melting point was 75 °C.
Work on `O=C(O)c1ccc(F)c(F)c1Nc1ccc(I)cc1Cl` yielded a melting point of 226 to 227 °C.
Compound `CCCCc1c(C(=O)c2ccc(O)cc2)sc2ccc([N+](=O)[O-])cc12` has a melting point of 182 °C.
Compound `Cc1oncc1CN1C(=O)C2(COc3cc4c(cc32)OCO4)c2ccccc21` (stereo not given) has a melting point of 159 to 161 °C.
`Cc1c(-c2ccccc2)oc(C(=O)O)cc1=O` showed a melting point of 218 °C.
`CN(C)C1(c2ccccc2)CCC2(OCCc3c2[nH]c2ccccc32)C(Sc2ccccc2)C1` (stereo not given) showed a melting point of 228 to 233 °C.
With `C=CCN(c1ncnc2c1ncn2C1OC(CO)C(O)C1O)C1CCCCC1` (stereo not given) the melting point was 123 to 125 °C.
`CC(=O)Nc1cc([N+](=O)[O-])c(Cl)cc1F` gave a melting point of 125 to 126 °C.
`Cc1nc(-n2[nH]c(C)c(Cc3ccc(Cl)cc3)c2=O)sc1C(=O)NCc1cccnc1` gave a melting point of 215 to 217 °C.
Compound `COc1cc(S(=O)(=O)c2ccncc2)ccc1N` has a melting point of 163 to 165 °C.
`CN(C)C(=O)C(C1CCCCC1)n1ccc(-c2ccccc2)n1` (stereo not given) gave a melting point of 87.5 to 90 °C.
With `CCOC(=O)CCc1cc(C(=O)c2cccc(C(=O)OCC)c2)ccc1/C=C\CCCCO` the melting point was 48 to 50 °C.
`COc1ccc2c(c1)OCCC(C(=O)O)=C2` showed a melting point of 197 to 200 °C.
`COc1cccc([C@H]2O[C@H](CC(=O)Nc3cc(Cl)cc4cc(C(=O)O)oc34)C(=O)N(CC(C)(C)CO)c3ccc(Cl)cc32)c1OC` showed a melting point of 179 to 180 °C.
`CC(C)(C)c1ccc(CN=C=S)cc1` gave a melting point of 44 to 47 °C.
`N#CCc1ccc(C(=O)c2ccc(Cl)cc2)[nH]1` gave a melting point of 203 to 205 °C.
For `Cc1ccc2c(c1)c1cc(-c3cc(F)cc(F)c3)c(=O)n(C)c1n2C`, the melting point was 240 °C.
In the case of `CCN(CC(OC)OC)C(=O)Nc1ccc(C(O)(C(F)(F)F)C(F)(F)F)cc1`, the melting point is reported as 138 to 140 °C.
For `CC(C)(C)OC(=O)Cc1ccc(CNC(=O)C2Cc3ccccc3N2S(=O)(=O)c2ccc(-c3cccc(C(F)(F)F)c3)cc2)cn1` (stereo not given), the melting point was 70 °C.
For `CCOC(=O)CCCOc1ccc(C(C)=O)cc1`, the melting point was 59 to 61 °C.
In the case of `NC(=O)CCN1CCN(C2Cc3cc(Cl)ccc3Sc3cc(F)ccc32)CC1` (stereo not given), the melting point is reported as 179 to 182 °C.
`Cc1cc(N2C(=O)NC(C)(C)C2=O)ccc1[N+](=O)[O-]` gave a melting point of 177 to 178 °C.
`Cc1cccc(NC(=O)OCc2cccc(O)c2)c1CNc1cccn2c(C)c(C)nc12` gave a melting point of 190 to 193 °C.
Work on `COCc1ccc(/C=C/c2c(OC)cc3c(c2OC)C(C)(C)CCC3(C)C)cc1` yielded a melting point of 66 to 68 °C.
For `Cc1cc(/C=C/C(=O)O)c(C)n1-c1ccc(C(=O)N(C)C)cc1`, the melting point was 182 to 184 °C.
`NC(=NO)c1c(F)ccc(OCc2nc3cc(Cl)ccc3s2)c1F` gave a melting point of 169 to 170 °C.
Compound `COc1ccc(C(=O)c2c(N)sc3c2CCC3)c2ccccc12` has a melting point of 214 to 215 °C.
Compound `Nc1nc(CCCCN2CCN(c3ncccn3)CC2)cs1` has a melting point of 101 to 104 °C.
With `CC(Br)(CBr)CS(=O)(=O)Oc1c(Cl)cccc1Cl` (stereo not given) the melting point was 74 to 76 °C.
For `CCCOc1cc(-c2c(C(=O)OCC)c(Cn3cnnc3)nc3cc(OC)c(OC)cc23)ccc1OC`, the melting point was 154 to 155 °C.
`Brc1ccc(C23CC4(c5ccc(Br)cc5)CC(c5ccc(Br)cc5)(C2)CC(c2ccc(Br)cc2)(C3)C4)cc1` gave a melting point of 354 °C.
For `CCCS(=O)(=O)c1ccc(NS(=O)(=O)c2cccs2)c2[nH]c(C3=NCCS3)cc12`, the melting point was 101 to 102 °C.
For `N#CC(C#N)=C(NC1CCN(Cc2ccccc2)CC1)NC1CCN(Cc2ccccc2)CC1`, the melting point was 147 to 148 °C.
For `CCOC(=O)C(=O)c1cc(O)c(O)c([N+](=O)[O-])c1`, the melting point was 77 to 79 °C.
Work on `CCOc1cc2c(cc1OC)C(c1ccc(C(=O)N3CCOCC3)cc1)=N[C@@H]1CCOC[C@H]21` yielded a melting point of 116 to 120 °C.
In the case of `Cc1cc2c(C)cc(-c3ccccc3Cl)nc2nc1-c1ccccc1`, the melting point is reported as 151 to 153 °C.
In the case of `O=C1OCCC1Nc1ccc(Nc2ccccc2)cc1` (stereo not given), the melting point is reported as 142 to 143 °C.
For `CC(=O)N(c1cccc(Br)c1)c1ncnc2ccc(N3C(=O)C=CC3=O)cc12`, the melting point was 174 to 175 °C.
Work on `Cc1nc(O)c(-c2ccc(S(C)(=O)=O)cc2)s1` yielded a melting point of 216 to 226 °C.
For `Cc1nc(N)c2nc(C)n(CCNC(=O)N3CCOCC3)c2c1C`, the melting point was 219 to 221 °C.
`CCCC(=NOCC)C1=C(O)CC(c2ccc(C=O)cc2)CC1=O` (stereo not given) showed a melting point of 81 to 82 °C.
With `Nc1ccc(Oc2c(NCc3ccccc3)cc(C(=O)O)cc2S(N)(=O)=O)cc1` the melting point was 272 °C.
Compound `CCOC(=O)c1c(C)nn(C)c1CCl` has a melting point of 81 to 83 °C.
Compound `O=c1[nH]c2c(Cl)cc(Cl)cc2c2nc(-c3ccccc3)nn12` has a melting point of 309 to 311 °C.
For `CCOC(=O)c1cn(-c2ccccc2)c2oc(CN3CCOCC3)cc2c1=O`, the melting point was 210 to 212 °C.
In the case of `OCC1C=CC(n2cnc3cc(Cl)c(Cl)cc32)C1` (stereo not given), the melting point is reported as 166 to 169 °C.
`CC(C)(C)OC(=O)CCP(Br)(c1ccccc1)(c1ccccc1)c1ccccc1` showed a melting point of 190 °C.
Work on `CCCCOc1c(CNC(=O)OC(C)(C)C)n(CC(C)C)c(=O)c2ccc(-c3nc(C)c(C(=O)OCC)s3)cc12` yielded a melting point of 146 to 147 °C.
In the case of `COc1ccc(-c2cn(C)cc(-c3ccc(OC)c(OC)c3)c2=O)cc1OC`, the melting point is reported as 182 to 184 °C.
`CC(C)c1nn(-c2ccc(F)cn2)cc1CCCO` gave a melting point of 78 to 79 °C.
`CN1C(=O)C(=O)N(Cc2ccccc2)CC1(CCO)c1ccc(Cl)c(Cl)c1` (stereo not given) gave a melting point of 198 °C.
`OC1CCCC2Oc3ccccc3OC12` (stereo not given) gave a melting point of 81 to 82 °C.
For `COC(=O)CCCC(C)(C)c1ccc(O)c(C(C)=O)c1O`, the melting point was 94 to 97 °C.
`COc1ccc(OCCO)c(C=O)c1` showed a melting point of 68 to 72 °C.
Compound `CC1=CC(N)=NC(c2ccccc2C(F)(F)F)N1c1n[nH]c2ccccc12` (stereo not given) has a melting point of 235 to 237 °C.
`Cc1cc(NC2CN(C(=O)OCc3ccccc3)CC2O)c2cc(C)c(-c3ccc(Cl)cc3Cl)n2n1` (stereo not given) gave a melting point of 105 to 110 °C.
For `CC(C)(Oc1ccc(Cl)cc1)C(=O)Cn1cncn1`, the melting point was 101 to 103 °C.
`Cc1ccc(C(=O)Oc2cc(O)ccn2)cc1` gave a melting point of 120 to 127 °C.
In the case of `CCCCOc1ccccc1Nc1ncc(C(=O)OCC)c(=O)[nH]1`, the melting point is reported as 209 to 211 °C.
`CC(C)(C)c1cc(Cn2nc(-c3ccccc3)oc2=O)cc(C(C)(C)C)c1O` gave a melting point of 164 °C.
With `C(=C1CNCCN1)c1ccccc1` the melting point was 80 to 81 °C.
`CCCCS(=O)(=O)Oc1c(C(=O)OC(C)C)sc(C(=O)OC(C)C)c1C` gave a melting point of 59 to 61 °C.
In the case of `O=C(O)CCSC(CCCc1ccccc1)c1ccc(OCc2ccc3ccccc3n2)cc1` (stereo not given), the melting point is reported as 97 to 100 °C.
Compound `C=Cc1c(NC(C)=O)cc(-c2ccc(Cl)c(OC)c2F)nc1C(=O)OC` has a melting point of 143 to 145 °C.
With `CCC(C)(C)Nc1c(NCc2cccc(Cl)c2C)c(=O)c1=O` the melting point was 236 to 237 °C.
`CN(C)C=CC(=O)c1cccnn1` gave a melting point of 102 to 105 °C.
In the case of `CNC1C(O)C(OC2C(N)CC(N)C(OC3OC(C(C)O)C(O)C(O)C3N)C2O)OCC1(C)O` (stereo not given), the melting point is reported as 65 °C.
`Cc1cc(-c2cc3cc(OCCNC[C@H](O)COc4ccccc4Cl)ccc3o2)no1` showed a melting point of 102 to 106 °C.
For `Cc1nc(N)sc1S(=O)(=O)N(CCO)CCO`, the melting point was 141 °C.
For `COc1cc(OC)cc(Oc2nc(N)n3nc(-c4ccco4)nc3n2)c1`, the melting point was 248 to 250 °C.
In the case of `Cc1cccnc1NC(=O)C(C)(C)C`, the melting point is reported as 90 to 92 °C.
`COC(=O)CCCC(=O)c1ccc(OC)c(I)n1` gave a melting point of 111 °C.
`O=C(NC(NC(=S)Nc1ccccc1F)C(F)(F)F)c1ccc(Cl)cc1` (stereo not given) showed a melting point of 197 to 200 °C.
With `COc1ccccc1-c1ccc2c(c1)CCCc1c-2nc2ccc(F)cc2c1C(=O)O` the melting point was > 300 °C.
`O=C(Cc1cccc(Br)c1)Nc1cccc(C(=O)NCCO)c1` showed a melting point of 202 °C.
In the case of `COC(=O)c1ccc(N)c(C(=O)C(=O)OC(=O)C(=O)c2cc(C(=O)OC)ccc2N)c1`, the melting point is reported as 256 to 257 °C.
In the case of `CCN(C)C1=NS(=O)(=O)c2ccc(Cl)cc2N1`, the melting point is reported as > 220 °C.
Compound `COC(=O)C(O)C(C)(Oc1ccc(Br)cc1)c1ccccc1` (stereo not given) has a melting point of 133 to 135 °C.
`C=CCn1cc2c(c1)-c1ccc(Cl)cc1C(c1ccccc1F)=NC2` gave a melting point of 100 to 102 °C.
With `CC(C)n1c(C=O)c(-c2ccc(F)cc2)c(-c2ccc(F)cc2)c1C(=O)O` the melting point was 228 to 230 °C.
`COc1ccccc1CSc1c(O)cc(-c2ccccc2)oc1=O` showed a melting point of 152 to 153 °C.
Work on `CCCC(=O)C(=CNc1cccc(COC(=O)c2ccccc2)c1)C(=O)OCC` yielded a melting point of 59 to 63 °C.
For `O=C(C=Cc1ccc(COc2ccccc2)cc1)NC(Cc1ccccc1)C(=O)O` (stereo not given), the melting point was 205 °C.
Work on `C=C(C)C(=O)NC1=CC(C(=O)O)C(O)(C(C)=O)C=C1` (stereo not given) yielded a melting point of 192 °C.
With `NNc1cc2c(nn1)CCN(C(=O)c1cccc(Cl)c1)C2` the melting point was 178 to 180 °C.
With `O=C(NCC1CCCC1)c1ccc2[nH]ccc2c1` the melting point was 110 to 112 °C.
Work on `O=S(=O)(Nc1cccc2cc(-c3ccccn3)[nH]c12)c1cccs1` yielded a melting point of 161 to 162 °C.
In the case of `CCCCC(=N)NC(=O)Nc1ccccc1`, the melting point is reported as 156 °C.
